Calls of active or inactive are those of the source. How the calls were made is not given here.
What follows are compounds tested on Jurkat NF-kB reporter, luminescence (assay: Jurkat NF-kB signaling inhibitors – cell-based, luminescence, selectivity assay for B-cell receptor NF-kB inhibitor project, dose response (AID 489006)).

Compound | IC50
Cc1ccc(-c2nn3c(C)nnc3c3ccccc23)cc1S(=O)(=O)NCCN1CCOCC1 | > 80 µM (inactive)
Cc1ccc(-c2nn3c(C)nnc3c3ccccc23)cc1S(=O)(=O)NC(C)(C)CO | 23.9 µM (inactive)
CCOc1ccc(-c2c[n+]3c(n2-c2ccccc2)CCCCC3)cc1 | > 80 µM (inactive)
COc1ccc(-n2c(-c3ccc(Br)cc3)c[n+]3c2CCc2ccccc2-3)cc1 | 31.8 µM (inactive)
Cc1ccc(/C=C2\SC(=S)N(CCCC(=O)NC3CCCC3)C2=O)cc1 | 0.73 µM
Cc1nn(C(C)(C)C)c(OC(=O)c2ccc(Br)o2)c1Sc1ccccc1 | > 80 µM (inactive)
Cc1ccc(NC(=O)O/N=C/c2c(C)nn(C(C)(C)C)c2C)cc1Cl | < 0.16 µM
O=C(CCCN1C(=O)/C(=C/c2ccccc2Cl)SC1=S)NNC(=O)c1ccncc1 | 7.79 µM
CC1CC(C)(C)Nc2ccc(OC(=O)c3ccco3)cc21 (stereo unspecified) | 3.18 µM
COc1ccc(/C=C2/SC(=S)N(CCC(=O)O)C2=O)cc1 | 0.4 µM
O=C(CCCN1C(=O)/C(=C/c2ccccc2Cl)SC1=S)Nc1ccccn1 | 9.52 µM
COC(=O)C1=C(c2ccc(-c3ccccc3)c(F)c2)C[C@@H]2CC[C@H]1N2C(=O)N1CCCC1 | 35.8 µM (inactive)
CCn1c(=O)cc(OCC(=O)Nc2ccc(OC)c(OC)c2)c2ccccc21 | > 80 µM (inactive)
COc1cc(-c2nc3n(n2)C(c2ccc(F)cc2)C2=C(CCCC2=O)N3)cc(OC)c1OC (stereo unspecified) | > 80 µM (inactive)
Cc1[nH]c2ccccc2c1C(=O)CN1C(=O)NC2(CC(C)CC(C)(C)C2)C1=O (stereo unspecified) | 52.7 µM (inactive)
CSc1ccc(-c2nc(CSCC(=O)NC3CC3)c(C)o2)cc1 | > 80 µM (inactive)
N=c1c2c(n(Cc3ccc(Cl)c(Cl)c3)c3c1CCC3)CCCC2 | 9.18 µM
CC(C)N1C(=O)S/C(=C/c2ccc3c(c2)n(C)c(=O)n3C)C1=O | > 80 µM (inactive)
C=C1C(=O)[C@@]23C[C@H]4[C@@H]5[C@@]6(C)CCC[C@@]57[C@@H]2[C@@H](O)[C@@H]1C[C@H]3[C@H]7N4C6 | 2.85 µM
Cc1nn(C)c(C)c1CN(C)S(=O)(=O)c1ccc2ccccc2c1 | > 80 µM (inactive)
Cn1c(=NC(=O)CCl)sc2ccccc21 | 1.18 µM
CCOC(=O)c1nn(-c2ccccc2)c(C#N)c1NC(=O)c1nn(CC)cc1Br | > 80 µM (inactive)
COc1cc(NC(=O)c2ccco2)c(OC)cc1NC(=O)c1cc(OC)c(OC)c(OC)c1 | 23 µM (inactive)
COc1ccc(/C=C\C(=O)O[C@@H]2C(O)C(O[C@@H]3OC(C)[C@H](O[C@@H]4OCC(O[C@H]5O[C@H](CO)[C@@H](O)C(O)C5O)C(O)C4O)C(O)C3O)[C@H](OC(=O)[C@]34CCC(C)(C)C[C@@H]3C3=CCC5[C@@]6(C)CC(O)C(O[C@@H]7OC(CO)C(O)[C@H](O)[C@H]7O)[C@@](C)(C(=O)O)C6CC[C@@]5(C)[C@]3(CO)CC4)O[C@H]2C)cc1 (stereo partly specified) | 2.88 µM
COc1ccc(/C=C2/SC(=S)N(CCCC(=O)Nc3cccc(O)c3)C2=O)cc1 | > 80 µM (inactive)
O=C(NNC(=O)C12CC3CC(CC(Br)(C3)C1)C2)c1ccccc1F | > 80 µM (inactive)
O=C(Nc1nc(-c2ccccc2)cs1)c1ccccc1NS(=O)(=O)c1ccc(F)cc1 | 19 µM
COc1ccc(OC)c(NC(=O)c2[nH]c(C)c(C(C)=O)c2C)c1 | > 80 µM (inactive)
COc1ccccc1/C=C1\SC(=S)N(CCC(=O)Nc2cccc(O)c2)C1=O | > 80 µM (inactive)

More lines, now with the values ahead:

IC50 | Compound
> 80 µM (inactive) | Cc1cc(C)cc(NC(=O)Nc2ccc(NC(=O)c3ccccc3O)cc2)c1
1.7 µM | C=CCOc1ccccc1CN(C(=O)CCl)c1ccc2c(c1)OCO2
63.8 µM (inactive) | COC(=O)c1cc(NC(=O)Nc2cc(OC)ccc2OC)cc(C(=O)OC)c1
> 80 µM (inactive) | COc1ccc(-c2noc(N3CCC(C(=O)Nc4ccc(OC)c(OC)c4)CC3)n2)cc1
55.2 µM (inactive) | COC(=O)c1[nH]c2ccc(C)cc2c1NC(=O)Nc1ccccc1OC
20.8 µM (inactive) | Cc1cc(C)c2nc(NC(=O)[C@@H](NC(=O)c3cccc(S(=O)(=O)N4CCOCC4)c3)C(C)C)sc2c1
> 80 µM (inactive) | CN(CC1CCCO1)S(=O)(=O)c1ccc(C(=O)Nc2nc3cc4c(cc3s2)OCO4)cc1 (stereo unspecified)
73 µM (inactive) | Cc1ccc(S(=O)(=O)Nc2ccc3c(c2)n(C)c(=O)n3C)cc1
> 80 µM (inactive) | COc1ccc(Cc2nc(-c3ccc(NC(=O)c4cccnc4)cc3)no2)cc1
> 80 µM (inactive) | CCc1ccc(/C=C2/SC(=S)N(CCC(=O)Nc3cccc(C(=O)O)c3)C2=O)cc1
> 80 µM (inactive) | CCOc1ccc(-n2c(SCC(=O)Nc3ccc4c(c3)OCCO4)nc3c(c2=O)SCC3)cc1
> 80 µM (inactive) | CC(C)C(=O)Nc1ccc(NC(=O)c2ccc3c(c2)OCO3)cc1
> 80 µM (inactive) | Cc1cc(OCC(=O)Nc2ccc(CCO)cc2)c2c(C)c(C)c(=O)oc2c1
> 80 µM (inactive) | COc1ccc(NS(=O)(=O)c2ccc(-c3coc(C)n3)cc2)cc1OC
5.14 µM | COc1ccc(OCc2cccc(C(=O)NN)c2)cc1
> 80 µM (inactive) | Cc1csc(NC(=O)/C=C/c2ccc3c(c2)OCO3)n1
> 80 µM (inactive) | CC(=C\c1ccccc1)/C=C1/SC(=O)N(CCCC(=O)Nc2ccc(C(=O)O)cc2)C1=O

Reference: PubChem BioAssay AID489006 (Sanford-Burnham Center for Chemical Genomics, 2010)
